*1 amine or outer side, *2 acyl side, *3 side chain or, on linkers, in order; H or OH if unused. Where a SMILES comes first, the peptide text is derived from it. Bridges are numbered along the chain shown (N, C = ends). [ ]: non-standard residue; d: D form. X23 = O=C(CCCCCc1cccnc1)N[C@@H](CCN[*:2])C(=O)[*:1]; hAad = O=C([C@H](CCCCC(=O)[*:3])N[*:1])[*:2]; X8 = O=C(CC[C@@H](N[*:2])C(=O)[*:3])[*:1]; X17 = O=C(C[C@@H](CCCN[*:3])N[*:2])[*:1]; Phe(4-Me) = Cc1ccc(C[C@H](N)C(=O)O)cc1; 2Nal = N[C@@H](Cc1ccc2ccccc2c1)C(=O)O; AEF = NCCOc1ccc(C[C@H](N)C(=O)O)cc1; 3Pal = N[C@@H](Cc1cccnc1)C(=O)O; αMeL = CC(C)C[C@](C)(N)C(=O)O; dDab = NCC[C@@H](N)C(=O)O; Dab = NCC[C@H](N)C(=O)O
Molecular target: T1, human IL-23R (Homo sapiens, UniProt Q5VWK5)
T1 sequence (Q5VWK5 22-629): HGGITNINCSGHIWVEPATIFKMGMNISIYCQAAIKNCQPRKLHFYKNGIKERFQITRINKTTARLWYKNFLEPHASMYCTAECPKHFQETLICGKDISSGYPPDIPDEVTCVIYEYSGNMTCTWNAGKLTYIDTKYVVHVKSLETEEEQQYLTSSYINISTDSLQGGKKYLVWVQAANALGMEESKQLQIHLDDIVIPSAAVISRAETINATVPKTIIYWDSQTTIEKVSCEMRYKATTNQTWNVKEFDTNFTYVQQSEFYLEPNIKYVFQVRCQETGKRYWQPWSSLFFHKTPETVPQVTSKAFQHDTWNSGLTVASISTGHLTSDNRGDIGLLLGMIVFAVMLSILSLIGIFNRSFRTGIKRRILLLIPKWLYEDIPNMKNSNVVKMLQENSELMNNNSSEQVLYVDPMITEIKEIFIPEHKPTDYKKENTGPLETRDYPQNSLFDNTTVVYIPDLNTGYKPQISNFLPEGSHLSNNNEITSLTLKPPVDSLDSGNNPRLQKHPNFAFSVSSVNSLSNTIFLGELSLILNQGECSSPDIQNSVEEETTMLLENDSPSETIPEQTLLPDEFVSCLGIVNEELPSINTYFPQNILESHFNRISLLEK
Assay: biochemical
Conditions: for Emax: read-out: % displacement (hIL-23R NIuc)
Excerpt: The compound binding affinity for IL-23R was estimated by the ability of compounds to displace a fluorophore-labelled reference compound from the human IL-23R. The assay principle relies on Bioluminescence Resonance Energy Transfer (BRET) between a fluorophore-labelled reference compound binding to the IL-23R part of a fusion protein consisting of the IL-23R fused to a Nanoluc luciferase enzyme (Nanoluc). The Nanoluc is placed in the N-terminus in close proximity to the binding domain of the ligand. Upon close proximity between the fluorophore of the fluorophore-labelled compound and the Nanoluc of the fusion protein, bioluminescence energy generated from conversion of a Nanoluc substrate, is transferred to the fluorophore resulting in an increase in BRET. In presence of an unlabelled compound, the unlabelled compound displaces the fluorophore-labelled peptide from its binding site resulting in a decrease in BRET. The concentration for which half of the fluorophore-labelled peptide is displaced by the unlabelled compound depends on the affinity of the compound for the IL-23R, and is termed the IC50 concentration.
The plasmid also contained a gene to confer resistance for the antibiotic hygromycin. A cell line stably expressing the Nluc-IL23R fusion protein was generated by transfection of HEK293 cells with the expression plasmid and selected with hygromycin for 3 weeks in Growth medium consisting of DMEM w/ Glutamax-I containing, 10% V/V FBS, 1% V/V P/S, 1 mM Sodium Pyruvate, and 1X NEAA, and 0.3 mg/mL hygromycin. The remaining cells were propagated and considered a stable expressing Nluc-IL23R fusion protein pool clone.
Cells expressing the Nluc-IL23R fusion protein were expanded in Growth medium and membranes prepared by homogenization of a cell pellet from 18 T175 flasks (4 °C in subsequent steps). The cell pellet was lysed Tris 10 mM, 7.5, 1 mM EDTA and protease inhibitors (Complete, Roche) and homogenized using a 15 mL glass-dounce by 50 strokes. The homogenate was spun at spin @1500 rpm for 10 min, the supernatant transferred to SV-34 tubes and spun at 40000g for 20 min at 4 °C to pellet the crude membranes. The supernatant was then removed, the pellet resuspended in 5 mL buffer containing 50 mM HEPES pH 7.4, 5 mM EGTA, and 5 mM MgCl2, and homogenized. Aliquots of the resuspended and homogenized membranes containing the Nluc-IL23R fusion protein were stored at -80 °C until use.
The plate was sealed with light impermeable plate seals, and incubated on an orbital shaker 400 rpm for 2 hours at room temperature. To determine the BRET ratio, the plate seal was removed and 25 µL of the Nanoluc substrate (Promega N1572) diluted 1:500 was added to each well and incubated for 1-2 minutes on an orbital shaker at 400 rpm. […] The BRET ratio was calculated as the fluorescence from the TAMRA/nanoluc bioluminescence.
Compound potency (IC50) and maximal displacement (% displacement) were estimated by computer-aided curve fitting using a 4-parameter logistic (4PL) non-linear model. […]
In this application, the inventors provide the data as IC50 values.

| % displacement (hIL-23R NIuc) [%] | IC50 [nM] | Emax [%] | SMILES |
| --- | --- | --- | --- |
| 99 | 3 | – | CNC(=O)[C@H](Cc1cccnc1)NC(=O)[C@H](CCN)NC(=O)[C@@H]1CCC(=O)NCCCCC[C@@H]2NC(=O)CC[C@H](NC(=O)[C@H](CCC(N)=O)NC(=O)[C@H](Cc3c[nH]c4ccccc34)NC2=O)C(=O)N[C@@H](Cc2ccc(OCCN)cc2)C(=O)N[C@@H](Cc2ccc3ccccc3c2)C(=O)N[C@@](C)(CC(C)C)C(=O)N1 [Compound 93, [hLys](1c)(6c)^†WQE(6c)[Y(2-aminoethoxy)][2-Nal][2-Me-Leu]E(1c)[Dab][3-(3-Pyridyl)-Ala]-[NHMe]] |
| – | – | 105 | CC(C)C[C@]1(C)NC(=O)[C@H](Cc2ccc3ccccc3c2)NC(=O)[C@H](Cc2ccc(OCCN)cc2)NC(=O)[C@@H]2CC(=O)N[C@H](CCNC(=O)CCCC[C@@H](C(=O)N[C@@H](CCN)C(=O)N[C@@H](Cc3cccnc3)C(N)=O)NC1=O)C(=O)N[C@@H]([C@@H](C)O)C(=O)N[C@@H](Cc1c[nH]c3ccccc13)C(=O)N[C@@H](CCC(N)=O)C(=O)N2 [Compound 15, [{d}Dab](1c)(6c)^†TWQD(6c)[Y(2-aminoethoxy)][2-Nal][2-Me-Leu][2-Amino-6-carboxyhexanoyl](1 c)[Dab][3-(3-Pyridyl)-Ala]-[NH2]] ([dDab]TWQD[AEF][2Nal][αMeL][hAad][Dab][3Pal]-NH2; lactam 1-9, N-5) |
| – | 16 | 101 | CNC(=O)[C@H](Cc1cccnc1)NC(=O)[C@H](CCN)NC(=O)[C@@H]1CCCCNC(=O)[C@H]2CCC(=O)N[C@@H](Cc3c[nH]c4ccccc34)C(=O)N[C@@H](CCC(N)=O)C(=O)N[C@@H](CCC(=O)N2)C(=O)N[C@@H](Cc2ccc(OCCN)cc2)C(=O)N[C@@H](Cc2ccc3ccccc3c2)C(=O)N[C@@](C)(CC(C)C)C(=O)N1 [Compound 108, [{d}iso-Glu](1c)^‡(6c)^†WQE(6c)[Y(2-aminoethoxy)][2-Nal][2-Me-Leu]K(1c)[Dab][3-(3-Pyridyl)-Ala]-[NHMe]] (WQE[AEF][2Nal][αMeL]K[Dab][3Pal]-NHMe; linker N-3-7 via X8) |

Continued, compound first:

| SMILES | % displacement (hIL-23R NIuc) [%] | IC50 [nM] | Emax [%] |
| --- | --- | --- | --- |
| CC(C)C[C@]1(C)NC(=O)[C@H](Cc2ccc3ccccc3c2)NC(=O)[C@H](Cc2ccc(OCCN)cc2)NC(=O)[C@@H]2CC(=O)N[C@H](CCCNC(=O)CC[C@@H](C(=O)N[C@@H](CCN)C(=O)N[C@@H](Cc3cccnc3)C(N)=O)NC1=O)CC(=O)N[C@@H]([C@@H](C)O)C(=O)N[C@@H](Cc1c[nH]c3ccccc13)C(=O)N[C@@H](CCC(N)=O)C(=O)N2 [Compound 13, [{d}bLys](1c)(6c)^†TWQD(6c)[Y(2-aminoethoxy)][2-Nal][2-Me-Leu]E(1c)[Dab][3-(3-Pyridyl)-Ala]-[NH2]] (TWQD[AEF][2Nal][αMeL]E[Dab][3Pal]-NH2; linker N-4-8 via X17) | 101 | 1.4 | – |
| COc1ccc(C[C@@H]2NC(=O)[C@@H]3CCC(=O)N[C@@H](CCCCNC(=O)CC[C@@H](C(=O)N[C@@H](CCCCNC(=O)Cc4ccnc(F)c4)C(N)=O)NC(=O)[C@](C)(CC(C)C)NC(=O)[C@H](Cc4ccc5ccccc5c4)NC2=O)C(=O)N[C@@H]([C@@H](C)O)C(=O)N[C@@H](C(C)C)C(=O)N[C@@H](Cc2c[nH]c4ccccc24)C(=O)N[C@@H](CCC(N)=O)C(=O)N3)cc1 [Compound 57, K(1c)(6c)^†TVWQE(6c)[Y(Me)][2-Nal][2-Me-Leu]E(1c)[K(4-pyridyl-3-fluoroacetyl)]-[NH2]] | – | 790 | 93 |
| COc1ccc(C[C@@H]2NC(=O)[C@@H]3CCC(=O)N[C@@H](CCCCNC(=O)CC[C@@H](C(=O)N[C@@H](CCCCNC(=O)CCc4ccncc4)C(N)=O)NC(=O)[C@](C)(CC(C)C)NC(=O)[C@H](Cc4ccc5ccccc5c4)NC2=O)C(=O)N[C@@H]([C@@H](C)O)C(=O)N[C@@H](C(C)C)C(=O)N[C@@H](Cc2c[nH]c4ccccc24)C(=O)N[C@@H](CCC(N)=O)C(=O)N3)cc1 [Compound 55, K(1c)(6c)^†TVWQE(6c)[Y(Me)][2-Nal][2-Me-Leu]E(1c)[K(4-pyridylpropionyl)]-[NH2]] | – | 140 | 100 |
| CC[C@H](C)[C@@H]1NC(=O)[C@@H]2CCCCNC(=O)CC[C@@H](C(=O)N3CCC[C@H]3C(=O)N[C@@H](Cc3cccnc3)C(=O)NC)NC(=O)[C@](C)(CC(C)C)NC(=O)[C@H](Cc3ccc4ccccc4c3)NC(=O)[C@H](Cc3ccc(OCCN)cc3)NC(=O)[C@H](CCC(=O)N2)NC(=O)[C@H](CCC(N)=O)NC(=O)[C@H](Cc2c[nH]c3ccccc23)NC(=O)[C@H](C(C)C)NC1=O [Compound 63, K(1c)(6c)^†IVWQE(6c)[Y(2-aminoethoxy)][2-Nal][2-Me-Leu]E(1c)P[3-(3-Pyridyl)-Ala]-[NHMe]] (KIVWQE[AEF][2Nal][αMeL]EP[3Pal]-NHMe; lactam 1-10, N-6) | 98 | 150 | – |
| CC[C@H](C)[C@@H]1NC(=O)[C@@H]2CCCCNC(=O)CC[C@@H](C(=O)N[C@@H](CCN)C(=O)N[C@@H](Cc3cccnc3)C(=O)NC)NC(=O)[C@](C)(CC(C)C)NC(=O)[C@H](Cc3ccc4ccccc4c3)NC(=O)[C@H](Cc3ccc(OC)cc3)NC(=O)[C@H](CCC(=O)N2)NC(=O)[C@H](CCC(N)=O)NC(=O)[C@H](Cc2c[nH]c3ccccc23)NC(=O)[C@H](C(C)C)NC1=O [Compound 35, K(1c)(6c)^†IVWQE(6c)[Y(Me)][2-Nal][2-Me-Leu]E(1c)[Dab][3-(3-Pyridyl)-Ala]-[NHMe]] | – | 0.11 | 98 |
| CC[C@H](C)[C@@H]1NC(=O)[C@@H]2CCCCNC(=O)CC[C@@H](C(=O)NCC(=O)N[C@H](Cc3cccnc3)C(N)=O)NC(=O)[C@](C)(C(C)C)NC(=O)[C@H](Cc3ccc4ccccc4c3)NC(=O)[C@](C)(Cc3ccccc3)NC(=O)[C@H](CCC(=O)N2)NC(=O)[C@H](CCC(N)=O)NC(=O)[C@H](Cc2c[nH]c3ccccc23)NC(=O)[C@H](C(C)C)NC1=O [Compound 21, K(1c)(6c)^†IVWQE(6c)[2-Me-Phe][2-Nal][2-Me-Val]E(1c)G[{d}3-(3-Pyridyl)-Ala]-[NH2]] | 101 | 1000 | – |
| CC[C@H](C)[C@@H]1NC(=O)[C@@H]2CCCCNC(=O)CC[C@@H](C(=O)N[C@@H](CCN)C(=O)N[C@@H](Cc3cncnc3)C(=O)NC)NC(=O)[C@](C)(CC(C)C)NC(=O)[C@H](Cc3ccc4ccccc4c3)NC(=O)[C@H](Cc3ccc(OCCN)cc3)NC(=O)[C@H](CCC(=O)N2)NC(=O)[C@H](CCC(N)=O)NC(=O)[C@H](Cc2c[nH]c3ccccc23)NC(=O)[C@H](C(C)C)NC1=O [Compound 78, K(1c)(6c)^†IVWQE(6c)[Y(2-aminoethoxy)][2-Nal][2-Me-Leu]E(1c)[Dab][3-(3,5-Pyrimidyl)-Ala]-[NHMe]] | 100 | 3 | – |
| Cc1ccc(C[C@@H]2NC(=O)[C@@H]3CCC(=O)N[C@@H](CCCCNC(=O)[C@@H](NC(=O)CCCCCc4cccnc4)CCNC(=O)[C@](C)(CC(C)C)NC(=O)[C@H](Cc4ccc5ccccc5c4)NC2=O)C(=O)N[C@@H]([C@@H](C)O)C(=O)N[C@@H](C(C)C)C(=O)N[C@@H](Cc2c[nH]c4ccccc24)C(=O)N[C@@H](CCC(N)=O)C(=O)N3)cc1 [Compound 25, K(1c)(6c)^†TVWQE(6c)[Y(2-aminoethoxy)][2-Nal][2-Me-Leu][iso-Dab](1c)^‡-[6-(3-pyridyl)hexanoyl]] (KTVWQE[Phe(4-Me)][2Nal][αMeL]; linker 1-C via X23; lactam N-6) | – | – | 91 |

— patent publication EP4471048A1, “PEPTIDE INHIBITORS OF INTERLEUKIN-23 RECEPTOR” (Zealand Pharma A/S, priority 2023, dated 2024)
